Assay results: patent US7435790B2, “Dihydroxypropyl cysteine peptide and agent containing this peptide” (Helmholtz-Zentrum fuer Infektionsforschung GmbH, priority 1996, dated 2008)

What was measured:
[1] = test system: interferon-treated murine peritoneal macrophages; experiment: Nitrite/nitrate (nitrogen monoxide) release on stimulation of interferon-treated murine peritoneal macrophages; type: cell-based; conditions: mouse system
Procedure: The lipopeptide is prepared from Mycoplasma fermentans (for example PG18). The isolation of the lipopeptide from mycoplasma is carried out by the following known separation procedure (Mühlradt et al. in Biochemistry, 35 (1996) 7781-7786). • (i) Delipidation of the mycoplasma using chloroform/methanol. • (ii) Extraction of the delipidated mycoplasma using hot 25 mM octyl glucoside. • (iii) Dialysis of the detergent extract. • (iv) Concentration of the extract by lyophilisation. • (v) Reversed-phase chromatography on a C8 column using a water/2-propanol gradient. Detection of the biological activity is effected by measuring nitrite and nitrate as the secondary products of nitrogen monoxide, which is liberated on stimulation of interferon-treated murine peritoneal macrophages.
Immun., 59 (1991) 3962-3968 and Feng & Lo in Infect. Immun., 62 (1994) 3916-3921. Its half-maximum effective concentration (Max/2) is 20 pg/ml or 10^−11 M in the mouse system. That effective concentration is lower by a factor of from 10^2 to 10^3 than the corresponding known concentrations of similar natural or synthetic lipopeptides.

macrophages of mice = conditions: cited from earlier work
macrophages of humans = conditions: cited from earlier work

EC50 ([1]; read-out: half-maximum effective concentration (Max/2)): 0.01 nM
Substance: Dhc-GNN DES NIS FKE K: S-(2,3-dihydroxypropyl)-cysteine peptide from Mycoplasma fermentans with two ester-bonded long-chain fatty acids (C16:0 and C18:0/C18:1)
half-maximum effective concentration (Max/2) [1]: 20 pg/mL
release of cytokines and prostaglandins from macrophages (macrophages of mice): stimulating macrophages of mice and humans to release cytokines and prostaglandins
release of cytokines and prostaglandins from macrophages (macrophages of humans): stimulating macrophages of mice and humans to release cytokines and prostaglandins
